Measured values reported in patent US10464922B2, “Metalloenzyme inhibitor compounds” (NQP 1598 LTD., priority 2015, dated 2019).
Converted amounts (≈) assume the structure as drawn.

Assays:
[1] = system: Hedgehog signaling pathway Gli Reporter-NIH3T3 cells; assay: Gli luciferase reporter assay, Hedgehog signalling pathway activity; format: cell-based; conditions: mShh 1 μg/ml, 27 hours
Method: Hedgehog signaling pathway Gli Reporter-NIH3T3 cells were cultured in DMEM medium with 10% Calf serum, 1% Penn-strep, 500 μg/ml of Geneticin.
To perform the Gli luciferase reporter assay, Gli Reporter—NIH3T3 cells were seeded at 25,000 cells per well into white clear-bottom 96-well microplate in 100 μl of growth medium. Cells were incubated at 37° C., and 5% CO2 for overnight. The next day, remove the medium from wells and add 45 μl of diluted inhibitor in assay medium (Opti-MEM Reduced Serum Medium+0.5% calf serum+1% non-essential amino acids+1 mM Na-pyruvate+10 mM HEPES+1% Pen/Strep) per well. Incubate cells at 37° C. in a CO2 incubator for 2 hours. Then add 5 μl of diluted mShh in assay medium to wells (final [mShh]=1 μg/ml). Add 50 μl of assay medium to cell-free control wells. Cells were treated for 27 hours. After treatment, cells were lysed and luciferase assay was performed using ONE-Step luciferase assay system: add 50 μl of One-Step Luciferase reagent per well and rock at room temperature for ˜30 minutes. Luminescence was measured using a luminometer (BioTek Synergy™ 2 microplate reader). Compounds of the present invention are active in blockade of hedgehog signalling.

C. albicans (ATCC 90028) = assay: Minimum inhibitory concentration, in vitro broth microdilution assay (CLSI M27-A2); format: cell-based, Candida albicans; conditions: ATCC 90028, about 50% growth reduction, 2 days at 36° C., range tested 8-0.0078 μg/mL, values given as ranges; for MIC: Candida albicans, ATCC90028, 48 h, read-out: Candida albicans MIC
Procedure, shortened: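 CLSI M27-A2 broth microdilution: 11 two-fold DMSO dilutions into RPMI-1640+MOPS with 1×10^3–1×10^4 CFU/mL, 2 percent DMSO final. Incubated 2 days at 36° C; MIC from visual growth scoring, duplicates.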

A. fumigatus = A. fumigatus MIC at 100% growth inhibition (CLSI M38-A2); format: cell-based, Aspergillus fumigatus; conditions: 100% growth inhibition, range tested 8-0.0078 μg/mL, values given as ranges; for MIC: Aspergillus fumigatus, read-out: Aspergillus fumigatus MIC
Method: A. fumigatus MICs were determined at 100% growth inhibition following CLSI guidelines at a concentration range of 8-0.0078 μg/mL (CLSI M38-A2).

Row | Structure (SMILES) | IC50 [1] | MIC (C. albicans (ATCC 90028)) | MIC (A. fumigatus) | Candida albicans MIC (C. albicans (ATCC 90028)) | Aspergillus fumigatus MIC (A. fumigatus)
1 | CC[C@@H]([C@H](C)O)n1ncn(-c2ccc(N3CCN(c4ccc(-c5ccc(C(F)(F)C(O)(Cn6cnnn6)c6ccccc6F)nc5)cc4)CC3)cc2)c1=O (mixture of isomers) [Example 38] | 38 nM |  |  |  | 
2 | CC[C@@H]([C@H](C)O)n1ncn(-c2ccc(N3CCN(c4ccc(-c5ccc(C(F)(F)C(O)(Cn6cnnn6)c6cccc(Cl)c6)nc5)cc4)CC3)cc2)c1=O (mixture of isomers) [Example 127, 4-(4-(4-(4-(6-(2-(3-chlorophenyl)-1,1-difluoro-2-hydroxy-3-(1H-tetrazol-1-yl)propyl)pyridin-3-yl)phenyl)piperazin-1-yl)phenyl)-2-((2S,3S)-2-hydroxypentan-3-yl)-2,4-dihydro-3H-1,2,4-triazol-3-one] | 20 nM | 0.1 to 1 µg/mL | > 8 µg/mL |  | 
3 | CC[C@@H]([C@H](C)O)n1ncn(-c2ccc(N3CCN(c4ccc(-c5ccc(C(F)(F)C(O)(Cn6cnnn6)c6ccc(F)cc6)nc5)cc4)CC3)cc2)c1=O (single isomer, unassigned; (+)) [63(+)] | 150 nM | 0.01 to 0.1 µg/mL (≈ 0.0135 to 0.135 µM) | 0.062 to 0.25 µg/mL (≈ 0.0837 to 0.337 µM) |  | 
4 | CC[C@@H]([C@H](C)O)n1ncn(-c2ccc(N3CCN(c4ccc(-c5ccc(C(F)(F)C(O)(Cn6cnnn6)c6cccc(F)c6)nc5)cc4)CC3)cc2)c1=O (single isomer, unassigned; (+)) [64(+)] | 160 nM | 0.01 to 0.1 µg/mL (≈ 0.0135 to 0.135 µM) | 0.25 to 1 µg/mL (≈ 0.337 to 1.35 µM) |  | 
5 | CC[C@@H]([C@H](C)O)n1ncn(-c2ccc(N3CCN(c4ccc(-c5ccc(C(F)(F)C(O)(Cn6ncnc6C)c6cccc(F)c6)nc5)cc4)CC3)cc2)c1=O (single isomer, unassigned; (+)) [85(+)] | 253 nM | 0.1 to 1 µg/mL (≈ 0.133 to 1.33 µM) | > 8 µg/mL |  | 
6 | CC[C@@H]([C@H](C)O)n1ncn(-c2ccc(N3CCN(c4ccc(-c5ccc(C(F)(F)C(O)(Cn6cnnn6)c6ccccc6F)nc5)cc4)CC3)cc2)c1=O (stereo partly drawn) [38(+)] | 120 nM |  |  | ≤0.0078 to 0.010 µg/mL | 0.062 to 0.25 µg/mL
7 | CC[C@@H]([C@H](C)O)n1ncn(-c2ccc(N3CCN(c4ccc(-c5ccc(C(F)(F)C(O)(Cn6cnnn6)c6ccccc6F)nc5)cc4)CC3)cc2)c1=O (stereo partly drawn) [38(−)] | 59 nM |  |  | 0.10 to 1.0 µg/mL | >8 µg/mL
8 | CC[C@@H]([C@H](C)O)n1ncn(-c2ccc(N3CCN(c4ccc(-c5ccc(C(F)(F)C(O)(Cn6cnc(C(F)(F)F)n6)c6ccccc6F)nc5)cc4)CC3)cc2)c1=O (stereo partly drawn) [106(+)] | 310 nM | > 8 µg/mL | > 8 µg/mL |  | 
9 | N#Cc1ccc(N2CCN(c3ccc(-c4ccc(C(F)(F)[C@](O)(Cn5cnnn5)c5ccc(F)cc5F)nc4)cc3)CC2)nc1 [Example 12] | 400 nM | 0.0078 to 0.01 µg/mL (≈ 0.0127 to 0.0162 µM) | 0.25 to 1 µg/mL (≈ 0.406 to 1.62 µM) |  | 
10 | CC[C@@H]([C@H](C)O)n1ncn(-c2ccc(N3CCN(c4ccc(-c5ccc(C(F)(F)[C@](O)(Cn6cnnn6)c6ccc(F)cc6F)nc5)cc4)CC3)cc2)c1=O [Example 20, 4-(4-(4-(4-(6-((R)-2-(2,4-difluorophenyl)-1,1-difluoro-2-hydroxy-3-(1H-tetrazol-1-yl)propyl)pyridin-3-yl)phenyl)piperazin-1-yl)phenyl)-2-((2S,3S)-2-hydroxypentan-3-yl)-2,4-dihydro-3H-1,2,4-triazol-3-one] | 190 nM | 0.0078 to 0.01 µg/mL (≈ 0.0103 to 0.0132 µM) | 1 to 4 µg/mL (≈ 1.32 to 5.27 µM) |  | 
11 | N#Cc1ccc(CN2CCN(c3ccc(-c4ccc(C(F)(F)[C@](O)(Cn5cnnn5)c5ccc(F)cc5F)nc4)cc3)CC2=O)cc1 [Example 28, (R)-4-((4-(4-(6-(2-(2,4-difluorophenyl)-1,1-difluoro-2-hydroxy-3-(1H-tetrazol-1-yl)propyl)pyridin-3-yl)phenyl)-2-oxopiperazin-1-yl)methyl)benzonitrile] | 580 nM | 0.0078 to 0.01 µg/mL (≈ 0.0121 to 0.0156 µM) | > 8 µg/mL |  | 
12 | CCC(C(C)O)n1ccn(-c2ccc(N3CCN(c4ccc(-c5ccc(C(F)(F)[C@](O)(Cn6cnnn6)c6ccc(F)cc6F)nc5)cc4)CC3)cc2)c1=O (stereo partly drawn) [Example 97, 1-(4-(4-(4-(6-((R)-2-(2,4-difluorophenyl)-1,1-difluoro-2-hydroxy-3-(1H-tetrazol-1-yl)propyl)pyridin-3-yl)phenyl)piperazin-1-yl)phenyl)-3-(2-hydroxypentan-3-yl)-1,3-dihydro-2H-imidazol-2-one] |  | 0.0078 to 0.01 µg/mL (≈ 0.0103 to 0.0132 µM) | 0.25 to 1 µg/mL (≈ 0.33 to 1.32 µM) |  | 
13 | O[C@@](Cn1cnnn1)(c1ccc(F)cc1F)C(F)(F)c1ccc(-c2ccc(N3CCN(c4ccc5ncn(Cc6ccccc6)c5c4)CC3)cc2)cn1 [Example 98, (R)-1-(5-(4-(4-(1-benzyl-1H-benzo [d]imidazol-6-yl)piperazin-1-yl)phenyl)pyridin-2-yl)-2-(2,4-difluorophenyl)-1,1-difluoro-3-(1H-tetrazol-1-yl) propan-2-ol] |  | 0.01 to 0.1 µg/mL (≈ 0.0139 to 0.139 µM) | > 8 µg/mL |  | 
14 | CC(O)C(F)(F)c1ccc(N2CCN(c3ccc(-c4ccc(C(F)(F)[C@](O)(Cn5cnnn5)c5ccc(F)cc5F)nc4)cc3)CC2)cn1 (stereo partly drawn) [Example 99, (2R)-1-(5-(4-(4-(6-(1,1-difluoro-2-hydroxypropyl)pyridin-3-yl)piperazin-1-yl)phenyl)pyridin-2-yl)-2-(2,4-difluorophenyl)-1,1-difluoro-3-(1H-tetrazol-1-yl) propan-2-ol] |  | 0.0078 to 0.01 µg/mL (≈ 0.0114 to 0.0146 µM) | 0.25 to 1 µg/mL (≈ 0.365 to 1.46 µM) |  | 
15 | OC(c1cc(F)cc(N2CCN(c3ccc(-c4ccc(C(F)(F)[C@](O)(Cn5cnnn5)c5ccc(F)cc5F)nc4)cc3)CC2)c1)C(F)(F)F (stereo partly drawn) [Example 100, (2R)-2-(2,4-difluorophenyl)-1,1-difluoro-1-(5-(4-(4-(3-fluoro-5-(2,2,2-trifluoro-1-hydroxyethyl)phenyl)piperazin-1-yl)phenyl)pyridin-2-yl)-3-(1H-tetrazol-1-yl) propan-2-ol] |  | 0.0078 to 0.01 µg/mL (≈ 0.0111 to 0.0142 µM) | 0.25 to 1 µg/mL (≈ 0.354 to 1.42 µM) |  | 
16 | CC(C)C(C(C)O)n1ncn(-c2ccc(N3CCN(c4ccc(-c5ccc(C(F)(F)[C@](O)(Cn6cnnn6)c6ccc(F)cc6F)nc5)cc4)CC3)cc2)c1=O (stereo partly drawn) [Example 103, 4-(4-(4-(4-(6-((R)-2-(2,4-difluorophenyl)-1,1-difluoro-2-hydroxy-3-(1H-tetrazol-1-yl)propyl)pyridin-3-yl)phenyl)piperazin-1-yl)phenyl)-2-(2-hydroxy-4-methylpentan-3-yl)-2,4-dihydro-3H-1,2,4-triazol-3-one] |  | 0.0078 to 0.01 µg/mL (≈ 0.0101 to 0.0129 µM) | 0.062 to 0.25 µg/mL (≈ 0.0802 to 0.323 µM) |  | 
17 | OC(c1cc(N2CCN(c3ccc(-c4ccc(C(F)(F)[C@](O)(Cn5cnnn5)c5ccc(F)cc5F)nc4)cc3)CC2)ccn1)C(F)(F)F (stereo partly drawn) [Example 104, (2R)-2-(2,4-difluorophenyl)-1,1-difluoro-3-(1H-tetrazol-1-yl)-1-(5-(4-(4-(2-(2,2,2-trifluoro-1-hydroxyethyl)pyridin-4-yl)piperazin-1-yl)phenyl)pyridin-2-yl)propan-2-ol] |  | 0.0078 to 0.01 µg/mL (≈ 0.0113 to 0.0145 µM) | 0.25 to 1 µg/mL (≈ 0.363 to 1.45 µM) |  | 
18 | O=C(Nc1ccc(N2CCN(c3ccc(-c4ccc(C(F)(F)[C@](O)(Cn5cnnn5)c5ccc(F)cc5F)nc4)cc3)CC2)cc1)C(O)CC(F)(F)F (stereo partly drawn) [Example 105, N-(4-(4-(4-(6-((R)-2-(2,4-difluorophenyl)-1,1-difluoro-2-hydroxy-3-(1H-tetrazol-1-yl)propyl)pyridin-3-yl)phenyl)piperazin-1-yl)phenyl)-4,4,4-trifluoro-2-hydroxybutanamide] |  | 0.0078 to 0.01 µg/mL (≈ 0.0105 to 0.0134 µM) | > 8 µg/mL |  | 
19 | OC(c1cn(-c2ccc(N3CCN(c4ccc(-c5ccc(C(F)(F)[C@](O)(Cn6cnnn6)c6ccc(F)cc6F)nc5)cc4)CC3)cn2)nn1)C(F)(F)F (stereo partly drawn) [Example 111, (2R)-2-(2,4-difluorophenyl)-1,1-difluoro-3-(1H-tetrazol-1-yl)-1-(5-(4-(4-(6-(4-(2,2,2-trifluoro-1-hydroxyethyl)-1H-1,2,3-triazol-1-yl)pyridin-3-yl)piperazin-1-yl)phenyl)pyridin-2-yl) propan-2-ol] |  | 0.0078 to 0.01 µg/mL (≈ 0.0103 to 0.0132 µM) | 0.25 to 1 µg/mL (≈ 0.331 to 1.32 µM) |  | 
20 | CC(C)(C)CC(O)c1ccc(N2CCN(c3ccc(-c4ccc(C(F)(F)[C@](O)(Cn5cnnn5)c5ccc(F)cc5F)nc4)cc3)CC2)cn1 (stereo partly drawn) [Example 118, 1-(5-(4-(4-(6-((R)-2-(2,4-difluorophenyl)-1,1-difluoro-2-hydroxy-3-(1H-tetrazol-1-yl)propyl)pyridin-3-yl)phenyl)piperazin-1-yl)pyridin-2-yl)-3,3-dimethylbutan-1-ol] |  | 0.0078 to 0.01 µg/mL (≈ 0.0113 to 0.0145 µM) | 0.25 to 1 µg/mL (≈ 0.362 to 1.45 µM) |  | 
21 | CC[C@@H]([C@H](C)O)n1ncn(-c2ccc(N3CCN(c4ccc(-c5ccc(C(F)(F)[C@](O)(Cn6cnnn6)c6ccc(F)cc6F)nc5)cc4)CC3)cn2)c1=O [Example 124, 4-(5-(4-(4-(6-((R)-2-(2,4-difluorophenyl)-1,1-difluoro-2-hydroxy-3-(1H-tetrazol-1-yl)propyl)pyridin-3-yl)phenyl)piperazin-1-yl)pyridin-2-yl)-2-((2S,3S)-2-hydroxypentan-3-yl)-2,4-dihydro-3H-1,2,4-triazol-3-one] |  | 0.01 to 0.1 µg/mL (≈ 0.0132 to 0.132 µM) |  |  | 0.25 to 1.0 µg/mL
